From ChEMBL document CHEMBL6074689 (Eur J Med Chem, 2025)
Active and inactive are the calls of the source. The calls are words filed in the database; no cut-off is given here.

Columns and labels:
[1] = Acute toxicity in Swiss albino mouse assessed as abnormal behavior at 175 mg/kg, po administered for 14 days; type: organism-based; conditions: in vivo, 336 h, time 14 day
[2] = test system: Mus musculus; assay: Neuroprotective activity against scopolamine-induced Swiss albino mouse model assessed as upregulation of PKA mRNA level at 0.3 to 0.5 mg/kg, po measured after 6 days by RT-PCR analysis; type: functional, organism-based; conditions: dose 0.3-0.5 mg/kg, time 6.0 day
[3] = Antioxidant activity assessed as DPPH radical scavenging activity at 200 uM incubated for 30 mins relative to control; type: functional
[4] = test system: PC-12; assay: Induction of apoptosis in rat PC-12 cells assessed as viable cells at 2.5 uM incubated for 24 hrs by Annexin V/PI staining based flow cytometry analysis (reference value: 82.8%); type: functional; conditions: read-out: Activity
[5] = target: T1, Acetylcholinesterase (Homo sapiens, UniProt P22303); assay: Displacement of propidium iodide from human AChE PAS assessed as reduction in fluorescence intensity at 0.01 uM incubated for 6 hrs by fluorescence based analysis relative to control; design: scale not given: the % may be the effect or the level left
[6] = test system: Drosophila melanogaster; assay: Anti-alzheimer activity in ey-GAL4 driven UAS-amyloid beta (1 to 42) induced Drosophila melanogaster Oregon R-positive assessed as rescued eye phenotype at 40 uM by Stereo zoom microscopic imaging analysis relative to control; type: functional
[7] = test system: PC-12; assay: Induction of apoptosis in rat PC-12 cells assessed as viable cells at 10 uM incubated for 24 hrs by Annexin V/PI staining based flow cytometry analysis (reference value: 82.8%); type: functional; conditions: read-out: Activity
[8] = test system: Drosophila melanogaster; assay: Anti-alzheimer activity in ey-GAL4 driven UAS-amyloid beta (1 to 42) induced Drosophila melanogaster Oregon R-positive assessed as mild eye phenotype at 10 to 20 uM by Stereo zoom microscopic imaging analysis relative to control; type: functional; conditions: dose 10-20 µM
[9] = test system: Mus musculus; assay: Neuroprotective activity against scopolamine-induced Swiss albino mouse model assessed as effect on PSD95 mRNA level at 0.3 to 0.5 mg/kg, po measured after 6 days by RT-PCR analysis; type: functional, organism-based; conditions: dose 0.3-0.5 mg/kg, time 6.0 day
[10] = target: T1, Acetylcholinesterase; assay: Displacement of propidium iodide from human AChE PAS assessed as reduction in fluorescence intensity at 0.1 uM incubated for 6 hrs by fluorescence based analysis relative to control; design: scale not given: the % may be the effect or the level left
[11] = Acute toxicity in Swiss albino mouse assessed as convulsion at 175 mg/kg, po administered for 14 days; type: organism-based; conditions: in vivo, 336 h, time 14 day
[12] = test system: Drosophila melanogaster; assay: Anti-alzheimer activity in ey-GAL4 driven UAS-amyloid beta (1 to 42) induced Drosophila melanogaster Oregon R-positive assessed as severe eye phenotype at 40 uM by Stereo zoom microscopic imaging analysis relative to control; type: functional
[13] = target: T1, Acetylcholinesterase; assay: Reversible binding affinity to human AChE using acetylthiocholine iodide as substrate assessed as equilibrium binding constant preincubated for 40 mins by DTNB reagent based Ellman's method
[14] = target: Amyloid-beta precursor protein (Homo sapiens) (UniProt P05067); assay: Inhibition of amyloid beta (1 to 42) (unknown origin) self induced aggregation at 1.521 uM incubated for 72 hrs by transmission electron microscopic analysis
[15] = test system: Mus musculus; assay: Antioxidant activity against scopolamine-induced Swiss albino mouse model assessed as increase in SOD level at 0.3 to 0.5 mg/kg, po by absorbance based analysis; type: functional, organism-based; conditions: dose 0.3-0.5 mg/kg
[16] = Permeability of the compound across blood brain barrier; type: ADME; conditions: read-out: BBB
[17] = test system: Drosophila melanogaster; assay: Anti-alzheimer activity in ey-GAL4 driven UAS-amyloid beta (1 to 42) induced Drosophila melanogaster Oregon R-positive assessed as mild eye phenotype at 40 uM by Stereo zoom microscopic imaging analysis relative to control; type: functional
[18] = target: T1, Acetylcholinesterase; assay: Displacement of propidium iodide from human AChE PAS assessed as reduction in fluorescence intensity at 5 uM incubated for 6 hrs by fluorescence based analysis relative to control; design: scale not given: the % may be the effect or the level left
[19] = Acute toxicity in Swiss albino mouse assessed as animal survival at 175 mg/kg, po administered for 14 days; type: organism-based; conditions: in vivo, 336 h, time 14 day
[20] = target: Amyloid-beta precursor protein (Homo sapiens) (UniProt P05067); assay: Inhibition of amyloid beta (1 to 42) (unknown origin) self induced aggregation at 1.521 uM incubated for 72 hrs by ThT fluorescence based assay
[21] = Acute toxicity in Swiss albino mouse assessed as tremor at 175 mg/kg, po administered for 14 days; type: organism-based; conditions: in vivo, 336 h, time 14 day
[22] = Toxicity in Drosophila melanogaster Oregon R-positive assessed as reduction in eclosed flies at 10 uM measured for 15 days relative to control; design: scale not given: the % may be the effect or the level left; conditions: 360 h, time 15 day
[23] = test system: Drosophila melanogaster; assay: Anti-alzheimer activity in ey-GAL4 driven UAS-amyloid beta (1 to 42) induced Drosophila melanogaster Oregon R-positive assessed as rescued eye phenotype at 50 uM by Stereo zoom microscopic imaging analysis relative to control; type: functional
[24] = Metal chelating activity assessed as compound-Cu2+ complex formation by measuring increase in absorption intensity at 300 uM in presence of by UV-vis spectrometry
[25] = test system: Mus musculus; assay: Neuroprotective activity against scopolamine-induced Swiss albino mouse model assessed as increase in CREB1 mRNA level at 0.3 to 0.5 mg/kg, po measured after 6 days by RT-PCR analysis; type: functional, organism-based; conditions: dose 0.3-0.5 mg/kg, time 6.0 day

T1 sequence (P22303 whole entry, the tested form may be a part): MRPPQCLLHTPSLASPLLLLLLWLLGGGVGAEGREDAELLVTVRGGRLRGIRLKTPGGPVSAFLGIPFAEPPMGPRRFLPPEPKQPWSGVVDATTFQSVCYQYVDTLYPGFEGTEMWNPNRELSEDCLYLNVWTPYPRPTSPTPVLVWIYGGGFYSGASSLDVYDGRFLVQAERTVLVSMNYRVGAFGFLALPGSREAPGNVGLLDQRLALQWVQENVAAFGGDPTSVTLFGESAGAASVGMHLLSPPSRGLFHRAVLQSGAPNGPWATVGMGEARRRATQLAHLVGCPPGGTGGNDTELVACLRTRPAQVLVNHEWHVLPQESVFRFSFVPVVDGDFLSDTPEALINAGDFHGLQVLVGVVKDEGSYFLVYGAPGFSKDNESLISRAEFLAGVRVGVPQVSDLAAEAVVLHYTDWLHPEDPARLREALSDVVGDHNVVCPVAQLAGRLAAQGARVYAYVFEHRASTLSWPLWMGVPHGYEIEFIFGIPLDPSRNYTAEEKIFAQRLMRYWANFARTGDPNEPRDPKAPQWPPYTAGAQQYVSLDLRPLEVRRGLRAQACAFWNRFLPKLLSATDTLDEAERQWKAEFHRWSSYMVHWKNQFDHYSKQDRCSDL
Chain of Amyloid-beta precursor protein (Homo sapiens) (P05067 whole entry): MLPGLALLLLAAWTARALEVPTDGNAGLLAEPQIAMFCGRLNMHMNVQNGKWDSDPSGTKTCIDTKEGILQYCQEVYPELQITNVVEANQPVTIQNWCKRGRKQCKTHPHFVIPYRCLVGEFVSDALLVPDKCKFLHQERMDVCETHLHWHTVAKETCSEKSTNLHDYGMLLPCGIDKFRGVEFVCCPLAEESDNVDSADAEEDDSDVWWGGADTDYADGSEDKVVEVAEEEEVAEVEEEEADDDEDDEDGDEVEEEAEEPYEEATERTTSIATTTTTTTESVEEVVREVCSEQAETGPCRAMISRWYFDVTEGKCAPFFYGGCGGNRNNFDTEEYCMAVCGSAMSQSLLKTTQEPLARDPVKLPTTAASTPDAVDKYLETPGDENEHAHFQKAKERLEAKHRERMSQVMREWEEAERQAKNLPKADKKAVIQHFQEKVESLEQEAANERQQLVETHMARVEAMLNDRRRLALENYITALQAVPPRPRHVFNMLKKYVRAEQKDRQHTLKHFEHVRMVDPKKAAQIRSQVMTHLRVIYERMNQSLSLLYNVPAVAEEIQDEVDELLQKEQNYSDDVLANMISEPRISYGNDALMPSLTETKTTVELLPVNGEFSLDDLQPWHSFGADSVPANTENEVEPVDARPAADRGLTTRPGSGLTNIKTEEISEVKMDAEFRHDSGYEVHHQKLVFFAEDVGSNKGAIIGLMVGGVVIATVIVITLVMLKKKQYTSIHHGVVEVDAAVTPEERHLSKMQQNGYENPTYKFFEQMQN

Question: For C[C@@H](c1cccc(OC(=O)NCCc2c[nH]c3ccc(Cl)cc23)c1)N(C)C, which Activity [1] is on record?
Answer: Non-toxic

Question: And the Activity [2]?
Answer: Active

Question: What about the Activity [3] of the same compound?
Answer: 38.9%

Question: What about the viability at 2.5 µM [4] of the same compound?
Answer: 72.2%

Question: What about the Activity [5] of the same compound?
Answer: 1.37%

Question: And the Activity [6]?
Answer: 40%

Question: What about the viability at 10 µM [7] of the same compound?
Answer: 55.3%

Question: What about the Activity [8] of the same compound?
Answer: 36%

Question: What about the Activity [9] of the same compound?
Answer: Active

Question: What about the Activity [10] of the same compound?
Answer: 3.56%

Question: And the Activity [11]?
Answer: Non-toxic

Question: What about the Activity [12] of the same compound?
Answer: 16%

Question: And the Kb [13]?
Answer: 0.196 nM

Question: What about the inhibition [14] of the same compound?
Answer: Active

Question: What about the Activity [15] of the same compound?
Answer: Active

Question: What about the Papp [16] of the same compound?
Answer: 13 ×10⁻⁶ cm/s

Question: And the Activity [17]?
Answer: 43%

Question: What about the Activity [18] of the same compound?
Answer: 21.9%

Question: And the Activity [19]?
Answer: Non-toxic

Question: And the inhibition [20]?
Answer: 100%

Question: What about the Activity [21] of the same compound?
Answer: Non-toxic

Question: What about the Activity [22] of the same compound?
Answer: 108%

Question: What about the Activity [23] of the same compound?
Answer: 23%

Question: What about the Activity [24] of the same compound?
Answer: inactive

Question: What about the Activity [25] of the same compound?
Answer: Active
